According to PubChem BioAssay (NCI):
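Results reflect a 48-hour exposure of cells in 96-well plates to compound at five concentrations. TGI: total growth inhibition.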

Each molecule was assayed on LXFL 529 NSCLC (assay: NCI tumour cell line growth inhibition, 48 h).
Work on CC1=C(Cl)C=CP(=O)(Oc2ccccc2)C1 (centres undefined) yielded a TGI of 28.7 µM. N#C/C(=C1/Sc2c(nc[nH]c2=O)N1c1ccccc1)c1nc2ccccc2[nH]1 was tested, and the TGI was greater than 100 µM. In the case of Cc1ccc(NC(=O)CC2Sc3ccccc3NC2=O)cc1C (centres undefined), the TGI is reported as greater than 100 µM. Nc1nc(SCCC/C=C/I)nc2c1ncn2C1OC(COP(=O)(O)O)C(O)C1O (centres undefined) showed a TGI greater than 100 µM.
